Assay results from publication PMC7619385 (ACS infectious diseases, 2025).
Where two headings read alike, the source gives them in different places.

Experiments:
LmxCLK1 [1] = target: T1, LmxCLK1 (Leishmania mexicana, UniProt E9AMP2); experiment: biochemical; type: binding
T1 sequence (E9AMP2 1-422): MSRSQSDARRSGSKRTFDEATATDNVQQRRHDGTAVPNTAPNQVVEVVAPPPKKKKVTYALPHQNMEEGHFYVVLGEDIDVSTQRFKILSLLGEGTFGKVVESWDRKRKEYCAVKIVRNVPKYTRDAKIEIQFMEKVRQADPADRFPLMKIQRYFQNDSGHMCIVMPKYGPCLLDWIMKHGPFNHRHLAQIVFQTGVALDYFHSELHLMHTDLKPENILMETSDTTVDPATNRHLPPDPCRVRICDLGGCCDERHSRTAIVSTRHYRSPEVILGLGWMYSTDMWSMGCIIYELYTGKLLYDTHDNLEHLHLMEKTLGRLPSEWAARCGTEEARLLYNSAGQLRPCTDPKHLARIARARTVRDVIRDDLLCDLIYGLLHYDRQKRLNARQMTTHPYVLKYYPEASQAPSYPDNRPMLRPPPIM

NLuc::LmxCLK1 = NLuc::LmxCLK1 (Leishmania mexicana, UniProt E9AMP2); experiment: cell-based; type: cell-based; conditions: for receptor occupancy at 10 µM: read-out: Target occupancy Average
Procedure, shortened: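 NanoBRET tracer displacement in live cells expressing NLuc-tagged CLK1, test compounds at 10 µM fixed, 1% DMSO final. Acceptor/donor emission (610/460 nm) ratio gives mBRET, converted to blank-corrected probe occupancy (%); probe KD from single-site saturation binding fits.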

LmxCLK1 [2] = target: T1, LmxCLK1; experiment: HTRF (TR-FRET) enzymatic inhibition assay; type: biochemical
Description: The enzymatic activity of full-length LmxCLK1 was monitored using a homogenous time-resolved fluorescence (HTRF)-based assay (HTRF KinEASE-STK S3 kit, Cisbio - catalog #62ST3PEC). For IC50 value determination, the data from two independent experiments performed in duplicate were fitted to the sigmoidal dose-response (variable slope) equation available in GraphPad Prism (v. 9.1.0). Detailed information for IC50 determination can be found in the Supplementary Information. […]
min at 4 °C. The supernatants were loaded onto an immobilized metal affinity chromatography (IMAC) […]
column (5 mL HisTrap FF Crude, GE Healthcare) and washed in Binding Buffer containing 30 mM imidazole.
Proteins were eluted in Binding Buffer with 300 mM imidazole. To remove the N-terminal 6xHis-tag […]
introduced during cloning (see above), proteins were incubated with TEV protease during dialysis […]
overnight at 4 °C into Gel Filtration Buffer (20 mM HEPES, 500 mM NaCl, 5% glycerol, 0.5 mM TCEP).
Recombinant proteins were further purified using reverse affinity chromatography on Ni-Sepharose […]
followed by gel filtration (Superdex 200 16/60, GE Healthcare), and concentrated using 10 kDa molecular […]
weight cut-off centrifugal concentrators (Millipore). LmxCLK1 (CQMED clone ID LmxCLK1-cb001) and […]
NLuc-LmxCLK1 (CQMED clone ID LmxCLK1-cb021) proteins were stored at -80 °C for in vitro biochemical […]
assays at 0.5 mg/mL and 0.7 mg/mL, respectively, measured by UV absorbance with a NanoDrop […]
spectrophotometer (Thermo Scientific), using the calculated molecular weight and estimated extinction […]
Purified proteins were further analyzed by LC-ESI-MS in a XEVO G2 Sx Q-ToF (Waters). Expected intact […]
masses for LmxCLK1 (CQMED clone ID LmxCLK1-cb001) and NLuc-LmxCLK1 (CQMED clone ID LmxCLK1- […]
cb021) were: 48,791.14 Da and 68,411.71 Da, respectively.
We monitored the activity of recombinantly produced full-length LmxCLK1 (CQMED clone ID LmxCLK1- […]
cb001) using a commercially-available homogenous time-resolved fluorescence (HTRF)-based assay (HTRF […]
KinEASE-STK S3 kit, Cisbio - catalog #62ST3PEC). Assay development included establishing reaction […]
parameters (optimal enzyme concentration, ATP concentration and reaction time).
(15-point, 3-fold serial dilution and a highest final assay concentration of 10 µM) prior to transfer (100 nL) […]
to a black, 384-well, round bottom, low-volume plate (Corning catalog #4514) containing a mixture of […]
LmxCLK1 and peptide substrate in kinase buffer using an automated liquid transferring system (CYBIO […]
FeliX®, Analytik Jena, Jena, Germany). […]
started by the addition of ATP and allowed to proceed for 75 min at 30 °C. Final concentrations for reaction […]
components were: 6 nM LmxCLK1, 66 µM ATP (10× KM,ATP), 1 µM peptide (STK Substrate 3-biotin, Cisbio).
All components were prepared in 1× Enzymatic Buffer (Cisbio) supplemented with 5 mM MgCl2, 1 mM […]
DTT, 0.01% Tween-20. The reaction was stopped by the addition of Detection Buffer containing EDTA, […]
Fluorescence signal was measured using a CLARIOstar microplate reader (BMG LABTECH) with excitation […]
at 330 nm, emission at 665 nm (acceptor) and 620 nm (donor), integration delay 60 μs and integration […]
time 400 μs. All reactions were done in duplicate and two independent experiments were performed.
Enzyme activity was expressed as the background-corrected HTRF ratio of the acceptor and donor […]
emission signals according to equation [1]:
(also on this page, place not known: imi dazole. Ni -Sepharose background -corrected (665/620)=3Acceptor!!"#$ −backgroundD.10,000 Downloaded from http://pubs.acs.org/aidcbc/article-supplement/3662943/pdf/id5c00610_si_001/ by guest on 07 August 2026) […]
where background is the background fluorescence obtained in the absence of enzyme (blank).
To determine IC50 values, the background-corrected HTRF ratio was plotted as a function of test

[3] = purified LmxCLK1, 30-min pre-incubation, 66 µM ATP, read-out: IC50 enzymatic inhibition of LmxCLK1

Row | SMILES | ΔTm at 10 µM (LmxCLK1 [1]; read-out: ΔTm Average) | ΔTm at 10 µM (LmxCLK1 [1]; read-out: ΔTm Run 1) | ΔTm at 10 µM (LmxCLK1 [1]; read-out: ΔTm Run 2) | IC50 (NLuc::LmxCLK1) | receptor occupancy at 10 µM (NLuc::LmxCLK1) | IC50 (LmxCLK1 [2]; [3]) | IC50 (LmxCLK1 [2]; pre-incubation 0 min, read-out: Time-dependent IC50) | IC50 (LmxCLK1 [2]; pre-incubation 5 min, read-out: Time-dependent IC50) | IC50 (LmxCLK1 [2]; pre-incubation 10 min, read-out: Time-dependent IC50) | IC50 (LmxCLK1 [2]; pre-incubation 15 min, read-out: Time-dependent IC50) | IC50 (LmxCLK1 [2]; pre-incubation 30 min, read-out: Time-dependent IC50) | ΔTm at 10 µM (LmxCLK1 [1]; DSF, 10 µM compound, 2 µM LmxCLK1, Run 1, read-out: ΔTm Run 1) | ΔTm at 10 µM (LmxCLK1 [1]; DSF, 10 µM compound, 2 µM LmxCLK1, Run 2, read-out: ΔTm Run 2) | ΔTm at 10 µM (LmxCLK1 [1]; DSF, 10 µM compound, 2 µM LmxCLK1, mean of two runs, read-out: ΔTm Average) | IC50 (LmxCLK1 [2]; IC50 enzymatic inhibition of LmxCLK1, purified LmxCLK1, 30-min pre-incubation, 66 µM ATP)
1 | C=CC(=O)Nc1cccc(Oc2nc(Nc3ccc(N4CCN(C)CC4)cc3)ncc2Cl)c1 [WZ3146] | 14.3 ± 0.1 °C | 14.2 °C | 14.4 °C | 13.6 µM | 35.2 ± 3.3% | 340 nM |  |  |  |  |  |  |  |  | 
2 | C=CC(=O)Nc1cccc(Sc2nc(Nc3ccc(N4CCN(C)CC4)cc3)ncc2Cl)c1 [WZ8040] | 14.8 ± 0.1 °C | 14.7 °C | 15 °C | 2.9 µM | 60.8 ± 0.8% | 204 nM | 1660 nM | 940 nM | 911 nM | 862 nM | 759 nM |  |  |  | 
3 | Cc1ccc(C(=O)Nc2ccc(CN3CCN(C)CC3)c(C(F)(F)F)c2)cc1C#Cc1cnc2[nH]ncc2c1 [GZD824] |  |  |  | 4.6 µM | 46.5 ± 3.2% |  |  |  |  |  |  | 17.1 °C | 17.7 °C | 17.4 ± 0.3 °C | 29.9 nM
